Experimental data published in paper PMC11995724, “Antibiotic target discovery by integrated phenotypic and activity-based profiling of electrophilic fragments” (Cell chemical biology, 2025).

Assay: in vitro
Details: human, hek293t cells

SMILES | viability at 48 h, 25 µM [%]
Cc1cc(C=C(C#N)C(=O)Nc2ccccc2)c(C)n1C1CC1 [8-E14, 2-cyano-3-(1-cyclopropyl-2,5-dimethyl-1H-pyrrol-3-yl)-N-phenylprop-2-enamide] | 91.7
N#CC(=Cc1ccccc1)C(=O)Nc1ccc(N2CCCCC2)cc1 [8-E15, 2-cyano-3-phenyl-N-[4-(piperidin-1-yl)phenyl]prop-2-enamide] | 64.7
Cc1ccc(C=C(C#N)C(=O)Nc2ccccc2C(F)(F)F)cc1 [8-E16, 2-cyano-3-(4-methylphenyl)-N-[2-(trifluoromethyl)phenyl]prop-2-enamide] | 96.3
Cc1ccc(C=C(C#N)C(=O)N2CCCC2)cc1 [8-E17, 3-(4-methylphenyl)-2-(pyrrolidine-1-carbonyl)prop-2-enenitrile] | 75.4
COc1ccccc1NC(=O)C(C#N)=Cc1ccc(F)cc1 [8-E18, 2-cyano-3-(4-fluorophenyl)-N-(2-methoxyphenyl)prop-2-enamide] | 81
Cc1cc(C)c(NC(=O)C(C#N)=Cc2ccccc2)c(C)c1 [8-E19, 2-cyano-3-phenyl-N-(2,4,6-trimethylphenyl)prop-2-enamide] | 29.4
N#CC(=CNc1ccc(F)cc1)C(=O)NCc1ccccc1 [8-E20, N-benzyl-2-cyano-3-[(4-fluorophenyl)amino]prop-2-enamide] | 98.3
C=CCNC(=O)C(C#N)=Cc1ccc(OC)c(O)c1 [8-E21, 2-cyano-3-(3-hydroxy-4-methoxyphenyl)-N-(prop-2-en-1-yl)prop-2-enamide] | 75.7
Cc1c(C=C(C#N)C(=O)NCC2(c3ccccc3)CC2)cc(C#N)n1C [8-E22, 2-cyano-3-(5-cyano-1,2-dimethyl-1H-pyrrol-3-yl)-N-[(1-phenylcyclopropyl)methyl]prop-2-enamide] | 79.4
N#CC(=Cc1ccccc1Cl)C(=O)Nc1ccc2c(c1)OCCO2 [8-F03, 3-(2-chlorophenyl)-2-cyano-N-(2,3-dihydro-1,4-benzodioxin-6-yl)prop-2-enamide] | 94.9
N#CC(=Cc1cc(C#N)cs1)C(=O)NC(N)=O [8-F04, {2-cyano-2-[(4-cyanothiophen-2-yl)methylidene]acetyl}urea] | 85.8
N#CC(=Cc1ccccc1OCc1ccccc1)C(=O)NC(N)=O [8-F05, (2-{[2-(benzyloxy)phenyl]methylidene}-2-cyanoacetyl)urea] | 84.9
COc1cccc(NC(=O)C(C#N)=Cc2cccc(Cl)c2Cl)c1 [8-F06, 2-cyano-3-(2,3-dichlorophenyl)-N-(3-methoxyphenyl)prop-2-enamide] | 29.8
N#CC(=Cc1ccc(O)c(O)c1)C(=O)Nc1cccc(Cl)c1Cl [8-F07, 2-cyano-N-(2,3-dichlorophenyl)-3-(3,4-dihydroxyphenyl)prop-2-enamide] | 77.6
CC(=Cc1ccccc1)C=C(C#N)C(=O)Nc1nccs1 [8-F08, 2-cyano-4-methyl-5-phenyl-N-(1,3-thiazol-2-yl)penta-2,4-dienamide] | 84.2
COc1ccc(NC(=O)C(C#N)=Cc2cccc(O)c2)cc1OC [8-F09, 2-cyano-N-(3,4-dimethoxyphenyl)-3-(3-hydroxyphenyl)prop-2-enamide] | 86.1
N#CC(=Cc1cccs1)C(=O)Nc1ccc(F)cc1 [8-F10, 2-cyano-N-(4-fluorophenyl)-3-(thiophen-2-yl)prop-2-enamide] | 102
Cc1ccc(NC(=O)C(C#N)=Cc2cccc(F)c2)cc1 [8-F11, 2-cyano-3-(3-fluorophenyl)-N-(4-methylphenyl)prop-2-enamide] | 85.7
CC1CCCCC1NC(=O)C(C#N)=CC=Cc1ccccc1[N+](=O)[O-] (centres unmarked) [8-F12, 2-cyano-N-(2-methylcyclohexyl)-5-(2-nitrophenyl)penta-2,4-dienamide] | 36
COc1ccc(C=C(C#N)C(=O)Nc2cccc3c2C(=O)NC3=O)cc1 [8-F13, 2-cyano-N-(1,3-dioxo-2,3-dihydro-1H-isoindol-4-yl)-3-(4-methoxyphenyl)prop-2-enamide] | 119
N#CC(=Cc1ccc(OC(F)F)cc1)C(=O)Nc1nccs1 [8-F14, 2-cyano-3-[4-(difluoromethoxy)phenyl]-N-(1,3-thiazol-2-yl)prop-2-enamide] | 113
COc1cc(C=C(C#N)C(=O)NC(C)C)cc(OC)c1 [8-F15, 2-cyano-3-(3,5-dimethoxyphenyl)-N-(propan-2-yl)prop-2-enamide] | 82.4
N#CC(=Cc1cccc([N+](=O)[O-])c1)C(=O)NCc1ccc(Cl)cc1 [8-F16, N-[(4-chlorophenyl)methyl]-2-cyano-3-(3-nitrophenyl)prop-2-enamide] | 0.958
Cn1ccc(NC(=O)C(C#N)=Cc2ncccc2C(F)(F)F)n1 [8-F17, 2-cyano-N-(1-methyl-1H-pyrazol-3-yl)-3-[3-(trifluoromethyl)pyridin-2-yl]prop-2-enamide] | 95.2
Cc1cccc(C=C(C#N)C(=O)NC(C)c2ccccc2)c1 (centres unmarked) [8-F18, 2-cyano-3-(3-methylphenyl)-N-(1-phenylethyl)prop-2-enamide] | 36.3

SMILES | viability at 48 h, 25 µM [%]
N#CC(=CC=Cc1ccccc1[N+](=O)[O-])C(N)=O [8-F19, 2-cyano-5-(2-nitrophenyl)penta-2,4-dienamide] | 1.55
N#CC(=Cc1ccc(-c2ccccc2Cl)o1)C(=O)N1CCCCC1 [8-F20, 3-[5-(2-chlorophenyl)furan-2-yl]-2-(piperidine-1-carbonyl)prop-2-enenitrile] | 66.6
N#CC(=Cc1cc([N+](=O)[O-])ccc1Cl)C(N)=O [8-F21, 3-(2-chloro-5-nitrophenyl)-2-cyanoprop-2-enamide] | 101
N#CC(=Cc1cc2c(cc1[N+](=O)[O-])OCO2)C(=O)NC1CCCCC1 [8-F22, 2-cyano-N-cyclohexyl-3-(6-nitro-1,3-dioxaindan-5-yl)prop-2-enamide] | 87.7
COc1ccc(C=C(C#N)C(=O)Nc2ccccc2[N+](=O)[O-])cc1 [8-G03, 2-cyano-3-(4-methoxyphenyl)-N-(2-nitrophenyl)prop-2-enamide] | 96.8
CCc1ccc(NC(=O)C(C#N)=Cc2cccnc2)cc1 [8-G04, 2-cyano-N-(4-ethylphenyl)-3-(pyridin-3-yl)prop-2-enamide] | 86.1
CC1CN(C(=O)C(C#N)=Cc2ccc(OC(F)F)cc2)CC(C)O1 (centres unmarked) [8-G05, 3-[4-(difluoromethoxy)phenyl]-2-(2,6-dimethylmorpholine-4-carbonyl)prop-2-enenitrile] | 97.8
Cc1c(C=C(C#N)C(=O)Nc2ccccn2)cc(C#N)n1C [8-G06, 2-cyano-3-(5-cyano-1,2-dimethyl-1H-pyrrol-3-yl)-N-(pyridin-2-yl)prop-2-enamide] | 94.1
Cc1ccsc1C=C(C#N)C(=O)NC1CCCCC1C (centres unmarked) [8-G07, 2-cyano-N-(2-methylcyclohexyl)-3-(3-methylthiophen-2-yl)prop-2-enamide] | 61.1
N#CC(=Cc1cc(F)ccc1F)C(=O)NC1CCCCC1 [8-G08, 2-cyano-N-cyclohexyl-3-(2,5-difluorophenyl)prop-2-enamide] | 9.88
COc1ccc(C=C(C#N)C(=O)Nc2ccccc2OC)cc1 [8-G09, 2-cyano-N-(2-methoxyphenyl)-3-(4-methoxyphenyl)prop-2-enamide] | 80.4
Cc1ccc(C=C(C#N)C(=O)NC2CCCCC2)cc1C [8-G10, 2-cyano-N-cyclohexyl-3-(3,4-dimethylphenyl)prop-2-enamide] | 59.4
CCc1ccc(C=C(C#N)C(=O)Nc2cc(C)c(Cl)cc2OC)cc1 [8-G11, N-(4-chloro-2-methoxy-5-methylphenyl)-2-cyano-3-(4-ethylphenyl)prop-2-enamide] | 92
CC(C)NC(=O)C(C#N)=Cc1ccc(OC(C)C)cc1 [8-G12, 2-cyano-N-(propan-2-yl)-3-[4-(propan-2-yloxy)phenyl]prop-2-enamide] | 64.9
N#CC(=Cc1cccs1)C(=O)Nc1nccs1 [8-G13, 2-cyano-N-(1,3-thiazol-2-yl)-3-(thiophen-2-yl)prop-2-enamide] | 110
Cc1cc(C=C(C#N)C(=O)NCc2ccccc2)c(C)n1C1CC1 [8-G14, N-benzyl-2-cyano-3-(1-cyclopropyl-2,5-dimethyl-1H-pyrrol-3-yl)prop-2-enamide] | 74
CSc1ccc(C=C(C#N)C(=O)Nc2c(C)cc(C)cc2C)cc1 [8-G15, 2-cyano-3-[4-(methylsulfanyl)phenyl]-N-(2,4,6-trimethylphenyl)prop-2-enamide] | 111
Cc1ccc(C=C(C#N)C(=O)Nc2ccccc2C)cc1 [8-G16, 2-cyano-N-(2-methylphenyl)-3-(4-methylphenyl)prop-2-enamide] | 118
N#CC(=Cc1ccccc1)C(=O)NC1CCCCCCC1 [8-G17, 2-cyano-N-cyclooctyl-3-phenylprop-2-enamide] | 46.6
COc1cccc(NC(=O)C(C#N)=Cc2ccc(C#N)cc2)c1 [8-G18, 2-cyano-3-(4-cyanophenyl)-N-(3-methoxyphenyl)prop-2-enamide] | 60.2
COc1ccc(C=C(C#N)C(=O)Nc2nccs2)cc1O [8-G19, 2-cyano-3-(3-hydroxy-4-methoxyphenyl)-N-(1,3-thiazol-2-yl)prop-2-enamide] | 85
CC1(C)Cc2cc(C=C(C#N)C(=O)Nc3ccccc3F)ccc2O1 [8-G20, 2-cyano-3-(2,2-dimethyl-2,3-dihydro-1-benzofuran-5-yl)-N-(2-fluorophenyl)prop-2-enamide] | 68
CCOc1ccccc1NC(=O)C(C#N)=Cc1c(F)cccc1F [8-G21, 2-cyano-3-(2,6-difluorophenyl)-N-(2-ethoxyphenyl)prop-2-enamide] | 78.1
CCOc1ccc(C=C(C#N)C(=O)N2CCc3sccc3C2)cc1 [8-G22, 3-(4-ethoxyphenyl)-2-{4H,5H,6H,7H-thieno[3,2-c]pyridine-5-carbonyl}prop-2-enenitrile] | 61.5
N#CC(=Cc1ccc2c(c1)OCCO2)C(=O)NCc1ccccc1 [8-H03, N-benzyl-2-cyano-3-(2,3-dihydro-1,4-benzodioxin-6-yl)prop-2-enamide] | 127
